In patent US10513521B2, “Compositions and methods for inhibiting BMP” (The Brigham and Women's Hospital, Inc., priority 2014, dated 2019):
“And” between values parts separate entries of the source, which are not always exact repeats. Equal entries are not always repeated.

Experiments:
[1] = biological target: T1, ALK1 (Bos taurus, UniProt A4FUX2); test: In-cell Western ALK1 assay (BAOEC cells, BMP9 as agonist); format: cell-based, Bovine; conditions: read-out: BMP9 ICW
T1 construct: The BAOEC cell line was employed for the measurement of ALK1 activity using BMP9 as the agonist; host or cells: BAOEC (bovine aortic endothelial cells)
T1 sequence (A4FUX2 23-503): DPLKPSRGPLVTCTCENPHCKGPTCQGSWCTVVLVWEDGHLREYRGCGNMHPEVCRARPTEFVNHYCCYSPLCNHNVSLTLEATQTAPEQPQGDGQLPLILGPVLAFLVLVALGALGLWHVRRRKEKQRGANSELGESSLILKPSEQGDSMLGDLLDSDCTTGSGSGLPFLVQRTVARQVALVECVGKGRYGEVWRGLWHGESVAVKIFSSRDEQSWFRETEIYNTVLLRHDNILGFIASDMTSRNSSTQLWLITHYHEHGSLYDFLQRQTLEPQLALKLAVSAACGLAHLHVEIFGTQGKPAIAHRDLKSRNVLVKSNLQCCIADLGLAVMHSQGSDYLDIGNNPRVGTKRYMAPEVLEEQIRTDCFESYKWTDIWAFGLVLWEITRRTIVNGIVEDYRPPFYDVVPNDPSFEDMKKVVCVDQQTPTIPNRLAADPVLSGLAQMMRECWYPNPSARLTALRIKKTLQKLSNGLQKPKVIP
Excerpt: 3. In-Cell Western ALK1 and ALK2 Assays in 384-Well Plate Format.
We also optimized cell-based In-cell Western assays for measurements of ALK1 and ALK2 activities that were used to determine compound activities in these two kinases. The cell lines and agonists used were same as described in above cell-based HTRF ALK1 and ALK2 assays. The initial cell plating and compound treatment were also same. The main difference is the detection of phosphorylation status of SMAD1. In t-cell Western assay, the cells were fixed and phosphorylation status of SMAD1 was detected by the ELISA instead of using the HTRF assay kit in above assay.
C2C12 cells and RPMI 1640 medium were obtained from ATCC (Manassas, Va.) and Bovine Aortic endothelial Cells (BAOEC) and epithelial defined growth medium were purchased from Genlantis (San Deigo, Calif.). HyClone Fetal Bovine Serum was obtained from GE healthcare life sciences (Logan, Utah). BMP6 and BMP9 were purchased from R&D System (R&D). Anti-P-SMAD 1/5/8 rabbit mAb and anti-rabbit IgG, HRP-Linked antibody were purchased from Cell Signaling Technology (Danvers, Mass.). BioFX Chemiluminescent Ultra-Sensitive HRP Microwell Substrate ECL Reagent was obtained from SurModics (Edina, Minn.). The compound plates and the white solid MB assay plates were from Greiner Bio-one (Monroe, N.C.).
Similarly as described in above HTRF cell-based assay, this assay was performed in 384 well plate format. C2C12 were grown in T225 flasks were sterilely washed with 1×PBS pre-starved with medium containing 0.1% FBS for 20 hours. Pre-starved cells were then plated in 384 well plate in the starvation medium (containing in 0.1% FBS). After 4 hours, compound dilutions in DMSO were added to the assay plate and incubated for 30 minutes. The assay plate was then added with BMP6 for C2C12 cells or BMP9 for BAOEC cells and incubated for 30 minutes.
Cells were fixed with 50 ul ice-cold methanol and incubated for 15 min after removing the supernatant. The methanol was removed and filled with 0.5% glutaraldehyde and incubated at room temperature for 15 min. The cells were washed in the plate washer with PBS and blocked with 2% BSA in PBS for 1 h at room temperature on the rotator. After removing the blocking reagent, the cells were incubated with the anti-p-SMAD1 antibody in 2% BSA in PBS for overnight at 4° C. on rotator. The cells were washed with PBS in the plate washer and incubated with HRP conjugated second antibody in 2% BSA in PBS for 1 hour at room temperature. After a cell wash with PBS, ECL detection reagent was added and the plate was read in the luminesce mode in the ViewLux plate reader.

[2] = biological target: ALK1 (Homo sapiens, UniProt P37023); test: TR-FRET enzymatic ALK kinase assay, ALK1
Description: (§1) Briefly, the ALKs enzymatic assay was initiated by dispense 2.5 μl enzyme in 1× kinase reaction buffer. The assay plate was then added with compounds followed by incubation at room temperature for 10 minutes. Then 2.5 μl/well substrate was added.

[3] = biological target: T2, ALK2 (Homo sapiens, UniProt Q04771); test: TR-FRET enzymatic ALK kinase assay, ALK2
T2 sequence (Q04771 21-509): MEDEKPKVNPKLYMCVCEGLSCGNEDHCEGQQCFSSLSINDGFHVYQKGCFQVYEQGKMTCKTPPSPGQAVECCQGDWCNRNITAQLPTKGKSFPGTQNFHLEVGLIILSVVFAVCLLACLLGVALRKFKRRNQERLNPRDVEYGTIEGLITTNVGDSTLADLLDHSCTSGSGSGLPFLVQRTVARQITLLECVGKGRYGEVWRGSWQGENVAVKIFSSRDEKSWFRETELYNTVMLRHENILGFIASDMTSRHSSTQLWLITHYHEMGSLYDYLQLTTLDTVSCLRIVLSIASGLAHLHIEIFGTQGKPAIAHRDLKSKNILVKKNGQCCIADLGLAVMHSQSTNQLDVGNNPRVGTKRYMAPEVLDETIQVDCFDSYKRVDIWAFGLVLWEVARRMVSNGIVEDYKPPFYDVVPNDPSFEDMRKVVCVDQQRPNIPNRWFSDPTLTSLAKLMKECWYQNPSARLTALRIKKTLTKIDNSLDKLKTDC
Description: as §1

[4] = biological target: T3, ALK5 (Homo sapiens, UniProt P36897); test: TR-FRET enzymatic ALK kinase assay, ALK5
T3 sequence (P36897 34-503): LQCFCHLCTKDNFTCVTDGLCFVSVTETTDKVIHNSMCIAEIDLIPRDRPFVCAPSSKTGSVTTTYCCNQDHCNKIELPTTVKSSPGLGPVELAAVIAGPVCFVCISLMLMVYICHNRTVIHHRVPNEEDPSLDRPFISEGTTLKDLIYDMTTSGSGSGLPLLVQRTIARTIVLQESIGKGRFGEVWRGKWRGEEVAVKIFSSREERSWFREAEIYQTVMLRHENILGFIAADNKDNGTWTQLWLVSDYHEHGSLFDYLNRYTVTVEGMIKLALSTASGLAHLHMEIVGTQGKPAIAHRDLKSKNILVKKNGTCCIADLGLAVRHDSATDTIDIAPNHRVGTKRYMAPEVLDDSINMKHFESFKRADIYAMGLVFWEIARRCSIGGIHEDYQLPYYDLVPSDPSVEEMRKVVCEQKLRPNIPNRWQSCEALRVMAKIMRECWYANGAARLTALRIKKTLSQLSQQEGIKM
Description: Six ALK kinase enzyme assays were developed for determination of compound activities on ALK1, ALK2, ALK3, ALK4, ALK5 and ALK6.
as §1

[5] = biological target: ALK6 (Homo sapiens, UniProt O00238); test: TR-FRET enzymatic ALK kinase assay, ALK6
ALK6, sequence (O00238 14-502): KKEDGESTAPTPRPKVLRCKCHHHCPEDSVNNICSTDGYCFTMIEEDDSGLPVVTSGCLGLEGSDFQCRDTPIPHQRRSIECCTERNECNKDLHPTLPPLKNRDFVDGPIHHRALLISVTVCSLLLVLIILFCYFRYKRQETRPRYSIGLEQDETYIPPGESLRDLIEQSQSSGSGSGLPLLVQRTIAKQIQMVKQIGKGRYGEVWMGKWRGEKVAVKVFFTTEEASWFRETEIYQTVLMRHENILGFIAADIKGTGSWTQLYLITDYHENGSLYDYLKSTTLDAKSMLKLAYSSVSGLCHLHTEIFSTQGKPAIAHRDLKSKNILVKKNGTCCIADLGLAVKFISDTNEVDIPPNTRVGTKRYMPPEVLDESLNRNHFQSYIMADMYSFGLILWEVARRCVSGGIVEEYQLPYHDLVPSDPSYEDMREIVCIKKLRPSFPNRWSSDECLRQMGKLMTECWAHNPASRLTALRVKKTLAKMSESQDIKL
Description: as §1

ALK1 (Homo sapiens, UniProt P37023), sequence (P37023 22-503): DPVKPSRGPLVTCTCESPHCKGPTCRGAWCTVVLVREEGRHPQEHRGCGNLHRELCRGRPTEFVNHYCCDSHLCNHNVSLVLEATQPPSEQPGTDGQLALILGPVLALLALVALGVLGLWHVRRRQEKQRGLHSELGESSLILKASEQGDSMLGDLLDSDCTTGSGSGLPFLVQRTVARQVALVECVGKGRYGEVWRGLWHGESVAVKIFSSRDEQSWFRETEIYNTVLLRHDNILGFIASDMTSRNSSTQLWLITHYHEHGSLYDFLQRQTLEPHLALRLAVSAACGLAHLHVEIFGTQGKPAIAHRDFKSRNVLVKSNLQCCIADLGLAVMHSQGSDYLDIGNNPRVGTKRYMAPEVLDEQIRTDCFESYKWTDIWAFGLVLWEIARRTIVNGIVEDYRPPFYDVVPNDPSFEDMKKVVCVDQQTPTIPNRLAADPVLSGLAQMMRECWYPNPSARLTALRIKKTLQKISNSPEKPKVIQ

Structure (SMILES)	IC50 [1]	IC50 [2]	IC50 [3]	IC50 [4]	IC50 [5]
C[C@@H]1CNC[C@H](C)N1c1ccc(-c2cnc3c(-c4cccc5c(C(N)=O)cccc45)cnn3c2)cc1 [Compound 10, 5-(6-(4-((2S,6R)-2,6-dimethylpiperazin-1-yl)phenyl)pyrazolo[1,5-a]pyrimidin-3-yl)-1-naphthamide]	42 nM and 53 nM and 66 nM and 78 nM and 91 nM and 28 nM and 49 nM and 51 nM	5 nM	8 nM	9290 nM	34 nM
N/C(=N/O)c1ccc(-c2cnn3cc(-c4ccc(N5CCNCC5)cc4)cnc23)c2ccccc12 [Compound 15, N′-hydroxy-4-(6-(4-(piperazin-1-yl)phenyl)pyrazolo[1,5-a]pyrimidin-3-yl)-1-naphthimidamide]	1500 nM	1480 nM	43 nM	17500 nM	12800 nM
CC(C)(CN1CCCCC1)Oc1ccc(-c2cnc3c(-c4cccc5c(C(N)=O)cccc45)cnn3c2)cc1 [Compound 18, 5-(6-(4-((2-methyl-1-(piperidin-1-yl)propan-2-yl)oxy)phenyl)pyrazolo[1,5-a]pyrimidin-3-yl)-1-naphthamide]	26 nM	16 nM	5 nM	13500 nM	183 nM
NS(=O)(=O)c1ccc(-c2cnn3cc(-c4ccc(CCN5CCCCC5)cc4)cnc23)c2ccccc12 [Compound 54, 4-(6-(4-(2-(piperidin-1-yl)ethyl)phenyl)pyrazolo[1,5-a]pyrimidin-3-yl)naphthalene-1-sulfonamide]		380 nM	94 nM	> 10000 nM	> 10000 nM
C[C@@H]1CNC[C@H](C)N1c1ccc(-c2cnc3c(-c4cccc(S(C)(=O)=O)c4)cnn3c2)cc1 [Compound 82, 6-(4-((2R,6S)-2,6-dimethylpiperazin-1-yl)phenyl)-3-(3-(methylsulfonyl)phenyl)pyrazolo[1,5-a]pyrimidine]	1.5 µM (2×) and 1 µM and 1.3 µM and 1.8 µM and 360 nM and 960 nM and 2 µM	30 nM	12 nM	> 10000 nM	7900 nM
CC(O)c1cccc(-c2cnn3cc(-c4ccc(N5[C@H](C)CNC[C@@H]5C)cc4)cnc23)c1 (stereo partly drawn) [Compound 83, 1-(3-(6-(4-((2R,6S)-2,6-dimethylpiperazin-1-yl)phenyl)pyrazolo[5-a]pyrimidin-3-yl)phenyl)ethanol]	1400 nM and 1200 nM and 1500 nM and 1800 nM and 2600 nM and 690 nM and 770 nM and 1600 nM	57 nM	12 nM	> 10000 nM	5400 nM
C[S+](=O)([O-])c1cccc(-c2cnn3cc(-c4ccc(OC5(CN6CCCCC6)COC5)cc4)cnc23)c1 [Compound 93, 3-(3-(methylsulfonyl)phenyl)-6-(4-((3-(piperidin-1-ylmethyl)oxetan-3-yl)oxy)phenyl)pyrazolo[1,5-a]pyrimidine]	3300 nM and 1400 nM and 3000 nM and 3800 nM and 3600 nM and 1200 nM and 1900 nM	100 nM	29 nM	> 10000 nM	2900 nM
C[C@@H]1CNC[C@H](C)N1c1ccc(-c2cnc3c(-c4cccc(C(C)(C)O)c4)cnn3c2)cc1 [Compound 103, 2-(3-(6-(4-((2R,6S)-2,6-dimethylpiperazin-1-yl)phenyl)pyrazolo[1,5-a]pyrimidin-3-yl)phenyl)propan-2-ol]	1400 nM and 560 nM and 1000 nM and 760 nM and 1500 nM and 310 nM and 830 nM	29 nM	13 nM	> 10000 nM	4300 nM
CC[S+](=O)([O-])c1cccc(-c2cnn3cc(-c4ccc(N5[C@H](C)CNC[C@@H]5C)cc4)cnc23)c1 [Compound 104, 6-(4-((2R,6S)-2,6-dimethylpiperazin-1-yl)phenyl)-3-(3-(ethylsulfonyl)phenyl)pyrazolo[1,5-a]pyrimidine]	1100 nM and 360 nM and 860 nM	34 nM	14 nM	> 10000 nM	7400 nM
C[S+](=O)([O-])c1cccc(-c2cnn3cc(-c4ccc(OC5(Cn6ccnc6)COC5)cc4)cnc23)c1 [Compound 105, 6-(4-((3-((1H-imidazol-1-yl)methyl)oxetan-3-yl)oxy)phenyl)-3-(3-(methylsulfonyl)phenyl)pyrazolo[1,5-a]pyrimidine]	1400 nM and 2300 nM and 1200 nM	150 nM	95 nM	> 10000 nM	> 10000 nM
C[S+](=O)([O-])c1cccc(-c2cnn3cc(-c4ccc(OCCN5CCCCC5)cc4)cnc23)c1 [Compound 109]		390 nM	95 nM	> 10000 nM	> 10000 nM
CC(C)S(=O)(=O)c1cccc(-c2cnn3cc(-c4ccc(CCN5CCCCC5)cc4)cnc23)c1 [Compound 113, 3-(3-(isopropylsulfonyl)phenyl)-6-(4-(2-(piperidin-1-yl)ethyl)phenyl)pyrazolo[1,5-a]pyrimidine]		500 nM	94 nM	> 10000 nM	9200 nM
CC(C)S(=O)(=O)c1cccc(-c2cnn3cc(-c4ccc(N5[C@H](C)CNC[C@@H]5C)cc4)cnc23)c1 [Compound 114, 6-(4-((2R,6S)-2,6-dimethylpiperazin-1-yl)phenyl)-3-(3-(isopropylsulfonyl)phenyl)pyrazolo[1,5-a]pyrimidine]		67 nM	32 nM	> 10000 nM	6300 nM
CS(=O)(=O)c1cccc(-c2cnn3cc(-c4ccc(CN5CCCCC5)cc4)cnc23)c1 [Compound 123, 3-(3-(methylsulfonyl)phenyl)-6-(4-(piperidin-1-ylmethyl)phenyl)pyrazolo[1,5-a]pyrimidine]		210 nM	56 nM	> 10000 nM	> 10000 nM
CC(O)c1cccc(-c2cnn3cc(-c4ccc(OC5(CN6CCCCC6)CC5)cc4)cnc23)c1 (stereo not drawn) [Compound 143, 1-(3-(6-(4-(1-(piperidin-1-ylmethyl)cyclopropoxy)phenyl)pyrazolo[1,5-a]pyrimidin-3-yl)phenyl)ethanol]		330 nM	47 nM	> 10000 nM	9600 nM
